# From patent US5814612A, “Retinol derivatives and uses thereof” (priority 1992, dated 1998)
# Key:
# 5/2 lymphoblastoid cells = assay: Kinetics of biosynthesis of 13,14DHR and 14HRR from 3H retinol in 5/2 lymphoblastoid cells; assay type: in vitro ADME, human
# Description: FIG. 24. Kinetics of biosynthesis of 14HRR in lymphoblastoid cells. 50 ml ITLB 600,000 5/2 cells/ml were incubated with 20 μCi of ^3 H retinol in serum-free ITLB medium. Cell pellets corresponding to 10 ml of culture were delipidated at 20 minute intervals and the corresponding lipid fraction separated on an analytical C18 reversed-phase column (see FIG. 20). Radioactive peaks were identified by coelution with cold reference retinoids.
# The kinetics of biosynthesis of 13,14DHR and 14HRR were determined in 5/2 lymphoblastoid cells. These cells were cultured in the presence of ^3 H retinol for different time periods, and the cell-associated retinoids extracted as referenced above. They were then chromatographed on an analytical C18 column as described in FIG. 20. The sizes of peaks emerging at 16.8 minutes, representing 13,14DHR, and 18.5 minutes, representing 14HRR, were measured and plotted in the bar diagram of FIG. 24.
# lymphoblastoid 5/2 cells = assay: Conversion of 13,14DHR to 14HRR by lymphoblastoid cells; assay type: in vitro ADME, human; settings: 10^-6 M, 1 and 2 hours, ITLB medium
# Description: FIGS. 25A through 25D. 13,14DHR can be converted to 14HRR by lymphoblastoid cells. 200,000 5/2 cells/ml were incubated with or without 10^-6 M 13,14DHR added in serum-free ITLB medium. After 1 and 2 hours, cells pellets corresponding to 10 ml of culture were delipidated and the corresponding lipid fractions separated on an analytical C18 reversed-phase column according to FIG. 20. Peaks were identified according to their retention times and their UV absorption patterns.
# Lymphoblastoid 5/2 cells devoid of retinol were cultured in the presence or absence of 10^-6 M 13,14DHR for 1 and 2 hours in ITLB medium. The retinoids extracted from the cell pellets were separated by HPLC according to FIG. 20. […] There was no 14HRR measurable in control cultures.
# T cells = assay: T cell activation and proliferation, retinol cofactor requirement; assay type: cell-based, murine
# Description: They were seeded into 96-well flat-bottom plates at varying cellular densities in a final volume of 100 μl. In control experiments, cells were cultured in medium containing 10% FCS or 3% human serum and 5×10^-5 M 2ME. […] Cultures were carried out in duplicate. Plates were incubated at 37° C. in a humidified 5% CO2 atmosphere. Cellular proliferation was determined by [^3 H] thymidine uptake (0.5 uCi/well; New England Nuclear, Boston, Mass.) after the incubation times indicated for each experiment with a 4 hour labeling pulse. Cells were harvested onto glass filter and [^3 H]TdR incorporation was determined by liquid scintillation counting. The data presented are the means of duplicate or six replicate cultures. The restriction to duplicate measurements was necessary to conserve scarce 14HRR. […] Each experiment was repeated at least twice.
# 5/2 cells = assay: Growth-supporting activity on 5/2 cells in serum-free ITLB medium; assay type: cell-based, human
# Description: The assay was done in 96-well microtiter plates in a final volume of 200 ul/well. The cells were cultured for 72 hours and cell growth determined by [^3 H] thymidine (0.8 μCi/well)labeling for the last 16 hours. Retinoids were added at the indicated concentrations at the initiation of culture and every 24 hours thereafter.
# 5/2 cells were grown in the absence of retinol in a medium containing the basic RPMI 1640 amino acid/salt mixture, insulin (5 μg/ml), transferrin (5 μg/ml), albumin (0.1%) and linoleic acid (10^-6 M) (ITLB). […] The dose-response curve shown in FIG. 26 indicates an effective concentration of 10^-7 M.
# CD4^+ T lymphocytes = assay: Proliferation of anti-CD3 activated CD4+ T lymphocytes; assay type: cell-based, BALB/c mouse
# Excerpt: (§1) Growth curves of lymph node T cells depleted of antigen-presenting cells (FIG. 17A) with and without 10^-6 M retinol at 2×10^5 and 5×10^4 cells/well. (FIG. 17B) Dose-responses elicited by different retinoids in cultures of lymph node T cells depleted of antigen-presenting cells. Also shown are the growth curves of CD4^+ (FIG. 17C) and CD8^+ T lymphocytes (FIG. 17D) in the presence of either retinol, 14HRR, human serum or in their absence.
# (§2) T lymphocytes, purified as described, 5×10^4 /well, were activated with immobilized anti-CD3 antibody in ITLB medium. The indicated amounts of retinoids or human serum were added at initiation of cultures. […] 14HRR was added every 12 hours. DNA synthesis was measured by a 4 hour pulse with tritiated thymidine. SDs were ≤17%.
# (§3) Mature T cells were obtained from pooled intestinal, axillary, inguinal and submandibular lymph nodes of 4 to 10-week-old BALB/c mice. To fractionate cells into CD4 and CD8 subsets and at the same time remove APC, a combination of adherence and complement lysis was used as follows:
# (§4) The cell suspension in a volume of 2 ml was applied to a nylon wool column (40) (0.6 g of washed nylon fibers in the barrel of a 10 ml syringe) and incubated at 37° C. for 40 min. […] The success of the enrichment procedures was monitored cytofluorimetrically using FITC-conjugated anti-CD8 and PE-conjugated anti-CD4. […]
# thymocytes = assay: Proliferation of anti-CD3 activated thymocytes in serum-free ITLB medium; assay type: cell-based, BALB/c mouse
# Description: FIG. 14A: Purified BALB/c thymocytes were activated with immobilized anti-CD3e antibody and cultivated for four days in ITLB medium with or without retinol (3×10^-6 M), 14HRR (6×10^-7 M) (fresh 14HRR was added every 12 hours), human serum (3%) or FCS (10%) at the cellular densities shown. Proliferation was assayed by tritiated thymidine incorporation into cellular DNA.
# FIG. 14B: BALB/c thymocytes (10^6 /ml) were added to microtiter plates coated with titrated amounts of anti-CD3e antibody with […] retinol or without, as indicated. Proliferation was measured in hexaduplicate wells on day 3 by ^3 H thymidine incorporation assay.
# Purified thymocytes (5×10^5 cells/well) were stimulated by TCR crosslinking with immobilized anti-CD3e antibody (FIG. 15A) or 0.4 μg/ml Con A (FIG. 15B) in serum-free ITLB medium. The indicated amounts of retinoids were added either once at the beginning of the experiment (marked as "1×") or every 12 hours thereafter (marked as "6×"). DNA synthesis was measured after 72 hours by tritiated thymidine uptake as described.
# Purified thymocytes (10^5 cells/well) were activated with anti-CD3 antibody in ITLB medium with or without retinol (3×10^-6 M), 14HRR (6×10^-7, added every 12 hours or human serum (3%)). DNA synthesis was measured daily by a 4 hour pulse of tritiated thymidine.
# Thymocytes (5×10^4 /well) were activated by immobilized anti-CD3 mAb in medium ITLB. Retinol (2×10^-6 M) was added at initiation of culture, or delayed by 12 hours and 24 hours, respectively, or omitted altogether. ^3 H thymidine pulses of 4 hours were used to measure DNA synthesis of hexaduplicate wells.
# Thymuses of 3 to 6-week-old BALB/c mice were teased in serum-free RPMI medium supplemented with 1% BSA, 10^-6 M linoleic acid and antibiotics. Depletion of accessory cells was achieved by two cycles of complement-dependent lysis with a mixture of anti-IA^d (5 μg/ml) and anti-IE^d (1:500 diluted ascites fluid). Briefly, cells were incubated on ice for 30 minutes with Ia antibodies, spun down, resuspended in 1:40 diluted rabbit complement, and incubated at 37° C. for 45 minutes. Incubations and two subsequent washes were carried out with RPMI medium containing 1% BSA. Cell viability was evaluated by trypan blue dye exclusion. To determine the extent of depletion of accessory cells, samples were stained with FITC-conjugated anti-Fc receptor antibody and analyzed by flow cytometry on a FACScan instrument (Becton Dickinson).
# Cells were cultured in serum-free medium, referred to as ITLB, containing RPMI 1640 supplemented with 8×10^-7 M insulin (5 μg/ml), 7×10^-8 M transferrin (5 μg/ml), 2×10^-6 M linoleic acid, 2×10^-6 M delipidated BSA (0.12 mg/ml), 2 mM L-glutamine, 1 mM sodium pyruvate and antibiotics. They were seeded into 96-well flat-bottom plates at varying cellular densities in a final volume of 100 μl. In control experiments, cells were cultured in medium containing 10% FCS or 3% human serum and 5×10^-5 M 2ME. T cells and thymocytes were activated with immobilized, purified anti-mAb CD3e or by the addition of Con A in the presence or absence of different concentrations of retinoids. Unless indicated otherwise, retinoids were replenished every 12 hours to maintain a reasonably constant concentration of these labile compounds in culture. […] Cultures were carried out in duplicate. Plates were incubated at 37° C. in a humidified 5% CO2 atmosphere. Cellular proliferation was determined by [^3 H] thymidine uptake (0.5 uCi/well; New England Nuclear, Boston, Mass.) after the incubation times indicated for each experiment with a 4 hour labeling pulse.
# B lymphocytes = settings: previous analyses with B lymphocytes (ref. 33); cited from earlier work
# lymph node T cells = assay: Proliferation of anti-CD3 activated lymph node T cells; assay type: cell-based, BALB/c mouse
# Excerpt: as §1, §2, §3, §4
# Cells were cultured in serum-free medium, referred to as ITLB, containing RPMI 1640 supplemented with 8×10^-7 M insulin (5 μg/ml), 7×10^-8 M transferrin (5 μg/ml), 2×10^-6 M linoleic acid, 2×10^-6 M delipidated BSA (0.12 mg/ml), 2 mM L-glutamine, 1 mM sodium pyruvate and antibiotics. […] The optimal concentration for stimulation of T cells was determined for each batch of anti-CD3 mAb and Con A. The optimal range of Con A was particularly narrow in serum-free medium (0.5-0.2 μg/ml) and varied with the cell density used. […] Cellular proliferation was determined by [^3 H] thymidine uptake (0.5 uCi/well; New England Nuclear, Boston, Mass.) after the incubation times indicated for each experiment with a 4 hour labeling pulse. […]
# [1] = system: lymphoblastoid cells (LCL); settings: cited from earlier work
# [2] = system: activated human thymocytes; settings: cited from earlier work
# CD8^+ T lymphocytes = assay: Proliferation of anti-CD3 plus IL-2 activated CD8+ T lymphocytes; assay type: cell-based, BALB/c mouse
# Excerpt: as §1, §2, §3, §4
conversion to 14HRR (lymphoblastoid 5/2 cells),SMILES,order of metabolite production (5/2 lymphoblastoid cells),ability to substitute for retinol in T cell activation (words) (T cells),restoration of proliferation in absence of retinol (5/2 cells),response of CD4+ subset to anti-CD3 (CD4^+ T lymphocytes),effect of delayed addition (thymocytes; addition delayed by 24 hours),"effectiveness relative to retinol (thymocytes; anti-CD3, 14HRR at 12 hour intervals)",optimally effective dose (thymocytes; given once in a 3-day culture) [µM],optimally effective dose (thymocytes; provided at 12 hour intervals) [µM],active concentration (B lymphocytes) [nM],stimulation of lymph node T cells (lymph node T cells),support of growth of LCL in serum-free medium [1],support of growth of activated human thymocytes [2],response of CD8+ subset to anti-CD3 plus IL-2 (CD8^+ T lymphocytes)
produced 14HRR,"CC1=C(/C=C/C(C)=C/C=C/C(C)(O)C(O)CO)C(C)(C)CCC1 (stereo not drawn) [13,14DHR, 13,14-dihydroxy-retinol]","production of 13,14DHR precedes that of 14HRR",can effectively substitute for retinol,proliferation was restored as well,,,,,,,,,,
,CC1=C(/C=C/C(C)=C/C=C/C(C)=C/C=O)C(C)(C)CCC1 [all-trans retinal],,can substitute for retinal,,responded to the activating signal,complete failure of activation,equally effective as all-trans retinol,2,0.2,200,dependent on the presence of retinal,support the growth of LCL in serum-free medium,The same is true for activated human thymocytes,responded to the activating signal
